Source: US10273233B2, “Inhibitors of influenza viruses replication” (Vertex Pharmaceuticals Incorporated, priority 2015, dated 2019)

Experiments:
[1] = system: A/Nebraska/1/2006; experiment: 3-day CP assay in MDCK cells; assay type: cell-based; conditions: Influenza A virus
[2] = system: influenza A; experiment: Influenza A mouse model, Compound (1) with or without oseltamivir; assay type: in vivo, Mice; conditions: for Percent Survival: 10 days
Protocol: Referring to FIG. 32, the potential for a positive therapeutic interaction between Compound (1) and oseltamivir against influenza A was explored in the mouse model. Mice were challenged with influenza A and dosed with vehicle (10 mL/kg 0.5% MC) or Compound (1) at 1, 3, 10, or 30 mg/kg BID alone, or in combination with 10 mg/kg BID oseltamivir. Therapy was started 48 hours post influenza A infection and continued for 10 days. All of the vehicle-treated controls succumbed to disease by study day 8 (Table 21).

SMILES: CC(C)(C)[C@@H](CC(=O)O)Nc1nc(-c2c[nH]c3ncc(F)cc23)ncc1F [Compound (1)]
- EC50 [1]: 1.9 nM
- protection from mortality ([2]; 1 or 3 mg/kg BID Compound (1) with 10 mg/kg oseltamivir dosed BID): increased protection from mortality compared to the single agents
- Percent Survival ([2]; Compound (1) 1 mg/kg BID alone, started +48 hours after infection): 0%
- Percent Survival ([2]; Compound (1) 1 mg/kg BID in combination with oseltamivir 10 mg/kg BID, +48 hours): 87.5%
- Percent Survival ([2]; Compound (1) 3 mg/kg BID alone, started +48 hours after infection): 75%
- Percent Survival ([2]; Compound (1) 3 mg/kg BID in combination with oseltamivir 10 mg/kg BID, +48 hours): 100%
- Percent Survival ([2]; Compound (1) 10 mg/kg BID alone, started +48 hours after infection): 100%
- Percent Survival ([2]; Compound (1) 10 mg/kg BID in combination with oseltamivir 10 mg/kg BID, +48 hours): 100%
- Percent Survival ([2]; Compound (1) 30 mg/kg BID alone, started +48 hours after infection): 100%
- Percent Survival ([2]; Compound (1) 30 mg/kg BID in combination with oseltamivir 10 mg/kg BID, +48 hours): 100%
- protection from mortality ([2]; Compound (1) at 3 mg/kg BID alone): partial survival benefit
- protection from mortality ([2]; Compound (1) at 10 or 30 mg/kg BID alone): complete protection from mortality
- protection from mortality ([2]; administered alone: Compound (1) 1 mg/kg BID, oseltamivir 10 mg/kg): failed to protect mice from influenza infection
- interaction of Compound (1) and oseltamivir combination ([2]; combination with oseltamivir): synergistic effect
